pIC50: −log10 of the molar value.

In the experiment the target is T1, human full-length MKNK1 (Homo sapiens, UniProt Q9BUB5, T385D).
T1 construct: purchased Carna Biosciences 02-145; host or cells: insect cells (baculovirus expression system)
T1 sequence (Q9BUB5 1-424 isoform Q9BUB5-2 T344D): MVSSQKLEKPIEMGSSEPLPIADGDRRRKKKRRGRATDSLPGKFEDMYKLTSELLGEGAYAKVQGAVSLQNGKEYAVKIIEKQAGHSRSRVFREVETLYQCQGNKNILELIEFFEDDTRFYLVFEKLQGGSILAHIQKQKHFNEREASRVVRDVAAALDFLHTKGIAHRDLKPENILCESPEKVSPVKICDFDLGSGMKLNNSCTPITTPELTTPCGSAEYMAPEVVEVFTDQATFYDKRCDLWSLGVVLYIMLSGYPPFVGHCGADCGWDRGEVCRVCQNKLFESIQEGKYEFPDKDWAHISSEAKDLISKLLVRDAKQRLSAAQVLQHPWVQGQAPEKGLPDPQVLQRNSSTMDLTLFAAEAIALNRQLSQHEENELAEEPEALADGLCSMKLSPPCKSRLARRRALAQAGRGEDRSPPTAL
Briefly: MKNK1 kinase high ATP assay (TR-FRET). The following applies: high ATP (2 mM final), 15 min preincubation with enzyme, GST-MKNK1 (T344D). The format is biochemical. Here is the method: MKNK1-inhibitory activity at high ATP of compounds of the present invention after their preincubation with MKNK1 was quantified employing the TR-FRET-based MKNK1 high ATP assay as described in the following paragraphs.
A recombinant fusion protein of Glutathione-S-Transferase (GST, N-terminally) and human full-length MKNK1 (amino acids 1-424 and T344D of accession number BAA 19885.1), expressed in insect cells using baculovirus expression system and purified via glutathione sepharose affinity chromatography, was purchased from Carna Biosciences (product no 02-145) and used as enzyme. As substrate for the kinase reaction the biotinylated peptide biotin-Ahx-IKKRKLTRRKSLKG (C-terminus in amide form) was used, which can be purchased e.g. from the company Biosyntan (Berlin-Buch, Germany).
For the assay 50 nL of a 100 fold concentrated solution of the test compound in DMSO was pipetted into a black low volume 384 well microtiter plate (Greiner Bio-One, Frickenhausen, Germany), 2 μL of a solution of MKNK1 in aqueous assay buffer [50 mM HEPES pH 7.5, 5 mM MgCl2, 1.0 mM dithiothreitol, 0.005% (v/v) Nonidet-P40 (Sigma)] was added and the mixture was incubated for 15 min at 22° C. to allow pre-binding of the test compounds to the enzyme before the start of the kinase reaction. Then the kinase reaction was started by the addition of 3 μL of a solution of adenosine-tri-phosphate (ATP, 3.3 mM=> final conc. in the 5 μL assay volume is 2 mM) and substrate (0.1 μM=> final conc. in the 5 μL assay volume is 0.06 μM) in assay buffer and the resulting mixture was incubated for a reaction time of 30 min at 22° C. The concentration of MKNK1 was adjusted depending of the activity of the enzyme lot and was chosen appropriate to have the assay in the linear range, typical concentrations were in the range of 0.003 μg/mL. The reaction was stopped by the addition of 5 μL of a solution of TR-FRET detection reagents (5 nM streptavidine-XL665 [Cisbio Bioassays, Codolet, France] and 1 nM anti-ribosomal protein S6 (pSer236)-antibody from Invitrogen [#44921G] and 1 nM LANCE EU-W1024 labeled ProteinG [Perkin-Elmer, product no. AD0071]) in an aqueous EDTA-solution (100 mM EDTA, 0.1% (w/v) bovine serum albumin in 50 mM HEPES pH 7.5).
The resulting mixture was incubated for 1 h at 22° C. to allow the formation of complex between the phosphorylated biotinylated peptide and the detection reagents. Subsequently the amount of phosphorylated substrate was evaluated by measurement of the resonance energy transfer from the Eu-chelate to the streptavidine-XL. Therefore, the fluorescence emissions at 620 nm and 665 nm after excitation at 350 nm were measured in a TR-FRET reader, e.g. a Rubystar (BMG Labtechnologies, Offenburg, Germany) or a Viewlux (Perkin-Elmer). The ratio of the emissions at 665 nm and at […] was taken as the measure for the amount of phosphorylated substrate. The data were normalised (enzyme reaction without inhibitor=0% inhibition, all other assay components but no enzyme=100% inhibition).
`COCCN(CCOC)C(=O)[C@H]1CCc2c(sc3ncnc(Nc4cc5cn[nH]c5cn4)c23)C1` [Example 56, (7S)—N, N-Bis(2-methoxyethyl)-4-(1H-pyrazolo[3,4-c]pyridin-5-ylamino)-5,6,7,8-tetrahydro[1]benzothieno[2,3-d]pyrimidine-7-carboxamide] gave a pIC50 of 8.09.
The value for `COCCN(C)C(=O)[C@H]1CCc2c(sc3ncnc(Nc4cc5cn[nH]c5cn4)c23)C1` [Example 57, (7S)—N-(2-Methoxyethyl)-N-methyl-4-(1H-pyrazolo[3,4-c]pyridin-5-ylamino)-5,6,7,8-tetrahydro[1]benzothieno[2,3-d]pyrimidine-7-carboxamide] was 7.82; that for `CCN(C)C(=O)[C@H]1CCc2c(sc3ncnc(Nc4cc5cn[nH]c5cn4)c23)C1` [Example 58, (7S)—N-Ethyl-N-methyl-4-(1H-pyrazolo[3,4-c]pyridin-5-ylamino)-5,6,7,8-tetrahydro[1]benzothieno[2,3-d]pyrimidine-7-carboxamide] was 7.76.
`CN(C)C(=O)[C@H]1CCc2c(sc3ncnc(Nc4cnc5[nH]ncc5c4)c23)C1` [Example 59, (7S)—N,N-Dimethyl-4-(1H-pyrazolo[3,4-b]pyridin-5-ylamino)-5,6,7,8-tetrahydro[1]benzothieno[2,3-d]pyrimidine-7-carboxamide] gave a negative logarithm of the IC50 (pIC50) of 8.64.
To `CN(C)C(=O)[C@H]1CCc2c(sc3ncnc(Nc4cc5cn[nH]c5cn4)c23)C1` [Example 60, (7S)—N,N-Dimethyl-4-(1H-pyrazolo[3,4-c]pyridin-5-ylamino)-5,6,7,8-tetrahydro[1]benzothieno[2,3-d]pyrimidine-7-carboxamide] belongs 8.11; to `O=C(c1[nH]c2ncnc(Nc3cnc4[nH]ncc4c3)c2c1Br)N1CCCCC1` [Example 61, [5-Bromo-4-(1H-pyrazolo[3,4-b]pyridin-5-ylamino)-7H-pyrrolo[2,3-d]pyrimidin-6-yl](piperidin-1-yl)methanone], 6.92; to `COc1nc2[nH]ncc2cc1Nc1ncnc2[nH]c(C(=O)N(C)CCN(C)C)c(Br)c12` [Example 62, 5-Bromo-N-[2-(dimethylamino)ethyl]-4-[(6-methoxy-1H-pyrazolo[3,4-b]pyridin-5-yl)amino]-N-methyl-7H-pyrrolo[2,3-d]pyrimidine-6-carboxamide], 7.92.
`CN(C)CCN(C)C(=O)c1[nH]c2ncnc(Nc3cc4cn[nH]c4nc3O)c2c1Br` [Example 63, 5-Bromo-N-[2-(dimethylamino)ethyl]-4-[(6-hydroxy-1H-pyrazolo[3,4-b]pyridin-5-yl)amino]-N-methyl-7H-pyrrolo[2,3-d]pyrimidine-6-carboxamide] showed a pIC50 of 7.84.
The value for `COc1nc2[nH]ncc2cc1Nc1ncnc2[nH]c(C(=O)N3CCC(N(C)C)CC3)c(Br)c12` [Example 64, {5-Bromo-4-[(6-methoxy-1H-pyrazolo[3,4-b]pyridin-5-yl)amino]-7H-pyrrolo[2,3-d]pyrimidin-6-yl}[4-(dimethylamino)piperidin-1-yl]methanone] was 8.38.
To `CN(C)C1CCN(C(=O)c2[nH]c3ncnc(Nc4cc5cn[nH]c5nc4O)c3c2Br)CC1` [Example 65] belongs 8.55.
The value for `COc1nc2[nH]ncc2cc1Nc1ncnc2[nH]c(C(=O)N3CCOC[C@H]3C)c(Br)c12` [Example 66] was 8.08; that for `COc1nc2[nH]ncc2cc1Nc1ncnc2[nH]c(C(=O)N3CCOCC3)c(Br)c12` [Example 67, {5-Bromo-4-[(6-methoxy-1H-pyrazolo[3,4-b]pyridin-5-yl)amino]-7H-pyrrolo[2,3-d]pyrimidin-6-yl}(morpholin-4-yl)methanone] was 7.82; that for `O=C(c1[nH]c2ncnc(Nc3cc4cn[nH]c4nc3O)c2c1Br)N1CCOCC1` [Example 68] was 8.00.
`CN(C)C1CCN(C(=O)c2[nH]c3ncnc(Nc4cc5cn[nH]c5cn4)c3c2Br)CC1` [Example 69, [5-Bromo-4-(1H-pyrazolo[3,4-c]pyridin-5-ylamino)-7H-pyrrolo[2,3-d]pyrimidin-6-yl][4-(dimethylamino)piperidin-1-yl]methanone]: the pIC50 is 7.70.
`C[C@@H]1COCCN1C(=O)c1[nH]c2ncnc(Nc3cc4cn[nH]c4cn3)c2c1Br` [Example 70, [5-Bromo-4-(1H-pyrazolo[3,4-c]pyridin-5-ylamino)-7H-pyrrolo[2,3-d]pyrimidin-6-yl][(3R)-3-methylmorpholin-4-yl]methanone] showed a pIC50 of 7.39. Against the preceding compound, the pIC50 is 0.31 log units lower.
To `O=C(c1[nH]c2ncnc(Nc3cc4cn[nH]c4cn3)c2c1Br)N1CCOCC1` [Example 71, [5-Bromo-4-(1H-pyrazolo[3,4-c]pyridin-5-ylamino)-7H-pyrrolo[2,3-d]pyrimidin-6-yl](morpholin-4-yl)methanone] belongs 7.36.
In turn, `O=C(c1[nH]c2ncnc(Nc3cc4cn[nH]c4cn3)c2c1Br)N1CCCCC1` [Example 72, [5-Bromo-4-(1H-pyrazolo[3,4-c]pyridin-5-ylamino)-7H-pyrrolo[2,3-d]pyrimidin-6-yl](piperidin-1-yl)methanone] showed a pIC50 of 7.80.
The value for `C[C@@H]1COCCN1C(=O)c1[nH]c2ncnc(Nc3cnc4[nH]ncc4c3)c2c1Br` [Example 73, [5-Bromo-4-(1H-pyrazolo[3,4-b]pyridin-5-ylamino)-7H-pyrrolo[2,3-d]pyrimidin-6-yl][(3R)-3-methylmorpholin-4-yl]methanone] was 6.84; that for `O=C(c1[nH]c2ncnc(Nc3cnc4[nH]ncc4c3)c2c1Br)N1CCOCC1` [Example 74, [5-Bromo-4-(1H-pyrazolo[3,4-b]pyridin-5-ylamino)-7H-pyrrolo[2,3-d]pyrimidin-6-yl](morpholin-4-yl)methanone] was 6.85.
`C[C@H]1COCCN1C(=O)c1[nH]c2ncnc(Nc3cnc4[nH]ncc4c3)c2c1Br` [Example 75, [5-Bromo-4-(1H-pyrazolo[3,4-b]pyridin-5-ylamino)-7H-pyrrolo[2,3-d]pyrimidin-6-yl][(3S)-3-methymorpholin-4-yl]methanone] had a pIC50 of 7.21. This pIC50 lies 0.36 log units higher than the previous one.
Consider `CN(C)C(=O)CNC(=O)c1cc2c(Nc3cc4cn[nH]c4cn3)ncnc2[nH]1` [Example 76, N-[2-(Dimethylamino)-2-oxoethyl]-4-(1H-pyrazolo[3,4-c]pyridin-5-ylamino)-7H-pyrrolo[2,3-d]pyrimidine-6-carboxamide], for which the pIC50 is 7.15. The pIC50 values of the last two compounds are within 0.2 log units of each other.
To `CN(C)CCN(C)C(=O)c1cc2c(Nc3cc4cn[nH]c4cn3)ncnc2[nH]1` [Example 77, N-[2-(Dimethylamino)ethyl]-N-methyl-4-(1H-pyrazolo[3,4-c]pyridin-5-ylamino)-7H-pyrrolo[2,3-d]pyrimidine-6-carboxamide] belongs 7.64.
Consider `CN(CCN(C)C(=O)c1cc2c(Nc3cc4cn[nH]c4cn3)ncnc2[nH]1)Cc1ccccc1` [Example 78, N-{2-[Benzyl(methyl)amino]ethyl}-N-methyl-4-(1H-pyrazolo[3,4-c]pyridin-5-ylamino)-7H-pyrrolo[2,3-d]pyrimidine-6-carboxamide], for which the pIC50 was 8.13.
To `c1ccc(CCc2nc3c(Nc4cc5cn[nH]c5cn4)ncnc3s2)cc1` [Example 79, 2-(2-Phenylethyl)-N-(1H-pyrazolo[3,4-c]pyridin-5-yl)[1,3]thiazolo[5,4-d]pyrimidin-7-amine] belongs 5.87.

For the origin of these results see patent publication US20160159789A1, “SUBSTITUTED PYRAZOLOPYRIDINES” (BAYER PHARMA AKTIENGESELLSCHAFT, priority 2013, published 2016).
